Assay results from patent US9308262B2, “Pharmaceutical composition for administration to nails” (NOVALIQ GMBH, priority 2011, dated 2016).

Assay: Penetration of drug from SFA-based carrier into excised human toe nails
Format: in vitro ADME
Conditions: for depth below the nail surface at which significant tacrolimus concentrations were found: 1 mg/mL tacrolimus in F6H8 with 3.8 wt.-% ethanol, 1,000 min, 40 μm slices
Protocol: Tacrolimus was dissolved in a liquid carrier comprising F6H8 and 3.8 wt.-% ethanol to obtain a clear solution having a tacrolimus concentration of 1 mg/mL. The composition was used to evaluate the penetration of tacrolimus from an SFA-based carrier into human nails.
Excised human toe nails were obtained and washed in isotonic sodium chloride solution. For each nail, a filter membrane of 16 mm in diameter (2.01 cm^2) was loaded with 30 μL of the test solution, placed onto the nail and incubated for 1,000 min. At the end of the period, the remaining amount of the test solution in the filter and on the nail was collected. From each nail, punch biopsies of 5 mm in diameter (0.1963 cm^2) were obtained. The punch biopsies were frozen and microtomised at −40° C. into 20 horizontal slices of 40 μm thickness. Each slice was extracted and analysed for tacrolimus by HPLC-MS, as were the collected amounts of non-permeated formulation.
The experiment of Example 1 was repeated, except that a solution of ciclopiroxolamine was used instead of a tacrolimus solution. The test composition contained 1% (w/v) of ciclopiroxolamine dissolved in a vehicle of F6H8 and ethanol (85/15 wt.-%).

Row | SMILES | depth distribution of ciclopiroxolamine in the nail matrix (1% (w/v) ciclopiroxolamine in F6H8 and ethanol (85/15 wt.-%), 1,000 min) | fraction of the administered amount of ciclopiroxolamine found in the nail matrix (1% (w/v) ciclopiroxolamine in F6H8 and ethanol (85/15 wt.-%), 1,000 min incubation) | depth below the nail surface at which significant tacrolimus concentrations were found | depth below the nail surface at which significant tacrolimus concentrations were found (listed as Tacrolimus) | total amount of tacrolimus found in the nails, relative to the administered dose (30 μL of 1 mg/mL tacrolimus solution in F6H8 with 3.8 wt.-% ethanol, 1,000 min incubation, HPLC-MS)
1 | Cc1cc(C2CCCCC2)n(O)c(=O)c1 [ciclopiroxolamine] | Significant amounts of drug were found throughout the depth of the nail matrix | 49.5% |  |  | 
2 | C=CC[C@@H]1/C=C(\C)C[C@H](C)C[C@H](OC)[C@H]2O[C@@](O)(C(=O)C(=O)N3CCCC[C@H]3C(=O)O[C@H](/C(C)=C/[C@@H]3CC[C@@H](O)[C@H](OC)C3)[C@H](C)[C@@H](O)CC1=O)[C@H](C)C[C@@H]2OC [tacrolimus] |  |  | 400 μm | ≥ 400 μm | approx. 9%
